# Reference: patent US20200339625A1, “NOVEL RADIOMETAL-BINDING COMPOUNDS FOR DIAGNOSIS OR TREATMENT OF PROSTATE SPECIFIC MEMBRANE ANTIGEN-EXPRESSING CANCER” (PROVINCIAL HEALTH SERVICES AUTHORITY, priority 2017, published 2020)
# Key:
# human serum = assay: Plasma protein binding assay; assay type: in vitro ADME; conditions: for filter-bound radioactivity: n=3
# Method: 1.16 Plasma Protein Binding Assay
# Plasma protein binding assays were performed according to literature methods.^19 Briefly, 37 kBq of ^177Lu-PSMA-617 or ^177Lu-HTK01169 in 50 μL PBS was added into 200 μL human serum and the mixture was incubated at room temperature for […]. The mixture was then loaded onto a membrane filter (Nanosep®, 30 K, Pall Corporation, USA) and centrifuged for 45 min (30,130×g). Saline (50 μL) was added and centrifugation was continued for another 15 min. The top part with the membrane filter and the bottom part with the solution were counted on a gamma counter. For control, saline was used in place of human serum.
# [1] = tested on: metastatic prostate cancer; conditions: cited from earlier work
# [2] = tested on: PSMA-expressing PC-3 PIP tumors; conditions: 5 MBq; cited from earlier work
# [3] = tested on: mice bearing LNCaP xenografts; assay: Biodistribution of 177Lu-labeled compounds; assay type: in vivo
# Method: 1.17 SPECT/CT Imaging, Biodistribution and Endoradiotherapy Studies
# SPECT/CT imaging and biodistribution were performed using NOD-scid IL2Rgammanu^null (NSG) male mice, and the endoradiotherapy study was conducted using NOD.Cg-Rag1^tm1MomII2rg^tm1WjI/SzJ (NRG) male mice. The mice were maintained and the experiments were conducted in according to the guidelines established by the Canadian Council on Animal Care and approved by Animal Ethics Committee of the University of British Columbia. Mice were anesthetized by inhalation with 2% isoflurane in oxygen, and implanted subcutaneously with 1×10^7 LNCaP cells posterior to the left shoulder. Mice were used for studies when the tumor reached 5-8 mm in diameter 5-6 weeks after inoculation.
# For biodistribution studies, the mice were injected with ^177Ludabeled PSMA-617 or HTK01169 (2-4 MBq) as described above. At predetermined time points (1, 4, 24, 72, or 120 h post-injection), the mice were euthanized by CO2 inhalation. Blood was withdrawn immediately from the heart, and the organs/tissues of interest were collected. The collected organs/tissues were weighed and counted using an automated gamma counter. For the blocking study, mice were co-injected with ^177Lu-HTK01169 (2-4 MBq) and 50 nmol of the non-radioactive standard, and organs/tissues of interest were collected at 4 h post-injection.
smiles,measurement,setting,value
"O=C([O-])CN1CCN(CC(=O)[O-])CCN(CC(=O)NCC2CCC(C(=O)N[C@@H](Cc3ccc4ccccc4c3)C(=O)NCCCC[C@H](NC(=O)N[C@@H](CCC(=O)O)C(=O)O)C(=O)O)CC2)CCN(CC(=O)[O-])CC1.[177Lu+3] (stereo partly shown) [^177Lu-PSMA-617, reference compound]",free radioligand,human serum; human serum,~17%
same,filter-bound radioactivity,human serum; incubated with human serum,82.7±0.32%
same,filter-bound radioactivity,human serum; incubated with saline (control),5.21±1.42%
same,complete response rate,"[1]; human, in vivo",< 7%
same,patients with progressive disease after treatment,"[1]; human, in vivo",up to 33%
same,side effects,"[1]; human, in vivo",without severe side effects
same,patients having >50% reduction in PSA levels,[1]; metastatic prostate cancer,32-60%
same,objective response,"[1]; phase 2 Australian study, patients with measurable nodal or visceral disease",82%
same,Median survival,[2],32 days
same,"tumor-to-background contrast ratios, trend",[3]; 1-120 h,improved over time as well
same,Adrenal glands uptake,[3]; 1 h post-injection,4.88±2.41 % ID/g
same,Blood uptake,[3]; 1 h post-injection,0.68±0.23 % ID/g
same,Bone uptake,[3]; 1 h post-injection,0.14 ± 0.06 % ID/g
same,Brain uptake,[3]; 1 h post-injection,0.03 ± 0.01 % ID/g
same,Fat uptake,[3]; 1 h post-injection,0.46 ± 0.18 % ID/g
same,Heart uptake,[3]; 1 h post-injection,0.28 ± 0.10 % ID/g
same,Intestine uptake,[3]; 1 h post-injection,0.26 ± 0.16 % ID/g
same,Kidneys uptake,[3]; 1 h post-injection,97.2±19.4 % ID/g
same,Liver uptake,[3]; 1 h post-injection,0.26 ± 0.15 % ID/g
same,Lung uptake,[3]; 1 h post-injection,1.34±0.39 % ID/g
same,Muscle uptake,[3]; 1 h post-injection,0.18 ± 0.06 % ID/g
same,Pancreas uptake,[3]; 1 h post-injection,0.33 ± 0.18 % ID/g
same,Seminal uptake,[3]; 1 h post-injection,0.14 ± 0.08 % ID/g
same,Spleen uptake,[3]; 1 h post-injection,3.34±1.77 % ID/g
same,Stomach uptake,[3]; 1 h post-injection,0.18 ± 0.14 % ID/g
same,Testes uptake,[3]; 1 h post-injection,0.49 ± 0.22 % ID/g
same,Tumor uptake,[3]; 1 h post-injection,15.1±5.58 % ID/g
same,Tumor/blood ratio,[3]; 1 h post-injection,22.8 ± 6.85
same,Tumor/kidney ratio,[3]; 1 h post-injection,0.15 ± 0.04
same,Tumor/muscle ratio,[3]; 1 h post-injection,86.9 ± 26.6
same,Adrenal glands uptake,[3]; 4 h post-injection,0.40 ± 0.18 % ID/g
same,Blood uptake,[3]; 4 h post-injection,0.12 ± 0.18 % ID/g
same,Bone uptake,[3]; 4 h post-injection,0.06 ± 0.03 % ID/g
same,Brain uptake,[3]; 4 h post-injection,0.02 ± 0.00 % ID/g
same,Fat uptake,[3]; 4 h post-injection,0.16 ± 0.11 % ID/g
same,Heart uptake,[3]; 4 h post-injection,0.04 ± 0.02 % ID/g
same,Intestine uptake,[3]; 4 h post-injection,0.07 ± 0.04 % ID/g
same,Kidneys uptake,[3]; 4 h post-injection,26.6 ± 19.1 % ID/g
same,Liver uptake,[3]; 4 h post-injection,0.08 ± 0.06 % ID/g
same,Lung uptake,[3]; 4 h post-injection,0.16 ± 0.07 % ID/g
same,Muscle uptake,[3]; 4 h post-injection,0.05 ± 0.03 % ID/g
same,Pancreas uptake,[3]; 4 h post-injection,0.05 ± 0.01 % ID/g
same,Seminal uptake,[3]; 4 h post-injection,0.02 ± 0.01 % ID/g
same,Spleen uptake,[3]; 4 h post-injection,0.24 ± 0.14 % ID/g
same,Stomach uptake,[3]; 4 h post-injection,0.04 ± 0.02 % ID/g
same,Testes uptake,[3]; 4 h post-injection,0.06 ± 0.01 % ID/g
same,Tumor uptake,[3]; 4 h post-injection,14.5 ± 1.83 % ID/g
same,Tumor/blood ratio,[3]; 4 h post-injection,290 ± 175
same,Tumor/kidney ratio,[3]; 4 h post-injection,0.79 ± 0.48
same,Tumor/muscle ratio,[3]; 4 h post-injection,371 ± 171
same,Adrenal glands uptake,[3]; 24 h post-injection,0.06 ± 0.03 % ID/g
same,Blood uptake,[3]; 24 h post-injection,0.00 ± 0.00 % ID/g
same,Bone uptake,[3]; 24 h post-injection,0.03 ± 0.02 % ID/g
same,Brain uptake,[3]; 24 h post-injection,0.01 ± 0.00 % ID/g
same,Fat uptake,[3]; 24 h post-injection,0.08 ± 0.03 % ID/g
same,Heart uptake,[3]; 24 h post-injection,0.01 ± 0.00 % ID/g
same,Intestine uptake,[3]; 24 h post-injection,0.02 ± 0.00 % ID/g
same,Kidneys uptake,[3]; 24 h post-injection,0.58 ± 0.22 % ID/g
same,Liver uptake,[3]; 24 h post-injection,0.03 ± 0.01 % ID/g
same,Lung uptake,[3]; 24 h post-injection,0.03 ± 0.01 % ID/g
same,Muscle uptake,[3]; 24 h post-injection,0.01 ± 0.00 % ID/g
same,Pancreas uptake,[3]; 24 h post-injection,0.01 ± 0.00 % ID/g
same,Seminal uptake,[3]; 24 h post-injection,0.01 ± 0.00 % ID/g
same,Spleen uptake,[3]; 24 h post-injection,0.05 ± 0.01 % ID/g
same,Stomach uptake,[3]; 24 h post-injection,0.04 ± 0.02 % ID/g
same,Testes uptake,[3]; 24 h post-injection,0.02 ± 0.01 % ID/g
same,Tumor uptake,[3]; 24 h post-injection,10.9 ± 3.30 % ID/g
same,Tumor/blood ratio,[3]; 24 h post-injection,2293 ± 651
same,Tumor/kidney ratio,[3]; 24 h post-injection,20.7 ± 8.39
same,Tumor/muscle ratio,[3]; 24 h post-injection,1582 ± 353
same,Adrenal glands uptake,[3]; 72 h post-injection,0.10 ± 0.06 % ID/g
same,Blood uptake,[3]; 72 h post-injection,0.00 ± 0.00 % ID/g
same,Bone uptake,[3]; 72 h post-injection,0.05 ± 0.02 % ID/g
same,Brain uptake,[3]; 72 h post-injection,0.01 ± 0.00 % ID/g
same,Fat uptake,[3]; 72 h post-injection,0.05 ± 0.02 % ID/g
same,Heart uptake,[3]; 72 h post-injection,0.01 ± 0.01 % ID/g
same,Intestine uptake,[3]; 72 h post-injection,0.01 ± 0.01 % ID/g
same,Kidneys uptake,[3]; 72 h post-injection,0.22 ± 0.11 % ID/g
same,Liver uptake,[3]; 72 h post-injection,0.02 ± 0.01 % ID/g
same,Lung uptake,[3]; 72 h post-injection,0.02 ± 0.01 % ID/g
same,Muscle uptake,[3]; 72 h post-injection,0.01 ± 0.00 % ID/g
same,Pancreas uptake,[3]; 72 h post-injection,0.01 ± 0.01 % ID/g
same,Seminal uptake,[3]; 72 h post-injection,0.01 ± 0.01 % ID/g
same,Spleen uptake,[3]; 72 h post-injection,0.03 ± 0.02 % ID/g
same,Stomach uptake,[3]; 72 h post-injection,0.03 ± 0.03 % ID/g
same,Testes uptake,[3]; 72 h post-injection,0.01 ± 0.00 % ID/g
same,Tumor uptake,[3]; 72 h post-injection,7.80 ± 3.69 % ID/g
same,Tumor/blood ratio,[3]; 72 h post-injection,2206 ± 337
same,Tumor/kidney ratio,[3]; 72 h post-injection,38.0 ± 13.4
same,Tumor/muscle ratio,[3]; 72 h post-injection,1378 ± 335
same,Adrenal glands uptake,[3]; 120 h post-injection,0.04 ± 0.02 % ID/g
same,Blood uptake,[3]; 120 h post-injection,0.00 ± 0.00 % ID/g
same,Bone uptake,[3]; 120 h post-injection,0.02 ± 0.01 % ID/g
same,Brain uptake,[3]; 120 h post-injection,0.01 ± 0.00 % ID/g
same,Fat uptake,[3]; 120 h post-injection,0.03 ± 0.01 % ID/g
same,Heart uptake,[3]; 120 h post-injection,0.00 ± 0.00 % ID/g
same,Intestine uptake,[3]; 120 h post-injection,0.03 ± 0.03 % ID/g
same,Kidneys uptake,[3]; 120 h post-injection,0.08 ± 0.03 % ID/g
same,Liver uptake,[3]; 120 h post-injection,0.01 ± 0.00 % ID/g
same,Lung uptake,[3]; 120 h post-injection,0.01 ± 0.00 % ID/g
same,Muscle uptake,[3]; 120 h post-injection,0.00 ± 0.00 % ID/g
same,Pancreas uptake,[3]; 120 h post-injection,0.00 ± 0.00 % ID/g
same,Seminal uptake,[3]; 120 h post-injection,0.00 ± 0.00 % ID/g
same,Spleen uptake,[3]; 120 h post-injection,0.02 ± 0.01 % ID/g
same,Stomach uptake,[3]; 120 h post-injection,0.05 ± 0.05 % ID/g
same,Testes uptake,[3]; 120 h post-injection,0.01 ± 0.00 % ID/g
same,Tumor uptake,[3]; 120 h post-injection,7.91±2.82 % ID/g
same,Tumor/blood ratio,[3]; 120 h post-injection,4425 ± 1485
same,Tumor/kidney ratio,[3]; 120 h post-injection,103 ± 75.9
same,Tumor/muscle ratio,[3]; 120 h post-injection,4388 ± 4211
same,blood clearance (qualitative),"[3]; mouse, in vivo",cleared rapidly from blood
same,peaked tumor uptake,[3]; peak over 1-120 h,15.1±5.58 % ID/g
